Entries after “also recorded” stand apart in the source; their conditions may differ. Like-named read-outs stand apart in the source and are kept apart here.
How the values were obtained:
iNOS = test: Immunomodulation assay: iNOS (M1 marker) expression in LPS-treated N9 microglial cells (Western blot); format: cell-based, mouse; conditions: 100 ng/mL LPS, 6 h pretreatment + 24 h, even at 0.5 μM
Source text: Microglia, essential regulators of neuroinflammatory processes, can be polarized to two distinct activation states: M1 and M2. M1 microglia have proinflammatory, neurotoxic properties and are modeled in vitro through lipopolysaccharides (LPS) activation. Alternatively, M2 microglia are involved in anti-inflammatory processes, contributing to trophic support of neurons and neuroprotective functions. A marked microglial activation with high expression levels of proinflammatory genes is found in MS lesions.[23] Conversely, the neuroprotective effects of the MS drug glatiramer are mediated by activated M2 microglia.[24] To this end, we evaluated whether 1 and 2 modulate microglial shift from an M1 neurotoxic phenotype to an M2 neuroprotective one. […] After pretreatment for 6 h and administration for a further 24 h, the microglial phenotype was evaluated through Western blot analysis of the M1-iNOS (inducible Nitric Oxide Synthase) and M2-TREM2 (Triggering Receptor Expressed on Myeloid cells 2) markers (Figure 6). We also assessed nitrite production, due to iNOS induction, in the incubation media. […]
Nitrite accumulation in cell media was assayed by the Griess reaction. […] Absorbance was read at 540 nm using a plate reader after 15 min of incubation at room […]
(§1) After 24 hours, the viability was evaluated through the MTT assay. […]

CNPase = test: Oli-Neu differentiation marker CNPase expression (Western blot); format: cell-based, mouse; conditions: Oli-Neu cells, 5 μM, 72 h
Source text: OPC proliferation and migration to the CNS injury site as well as their differentiation are critical steps toward remyelination in MS. HDAC activity plays a crucial role in OPC proliferation/differentiation; therefore, HDAC modulation is widely considered a promising therapeutic target for MS.[30] […] Therefore, we tested the effect of our compounds on OPC proliferation and differentiation, through cell counting, measure of filaments, and analysis of proliferation/differentiation markers (Figure 7). […]
as §1
48 hours, for cell counting and measure of filaments, 5 random images for each condition were acquired with an Eclipse TS100 (Nikon) microscope using a 10X objective. Cells number and filament length were measured with Fiji ImageJ2 software. After 48 hours for proliferation and 72 hours of treatment for differentiation analysis, cells were lysed in ice-cold lysis buffer (50 mM Tris-HCl pH 7.4, 1% SDS, 0.05% protease inhibitor cocktail; all from Sigma-Aldrich) and protein content was determined by using the Lowry method. […]

[1] = test system: primary rat cerebellar granule neurons (CGNs); conditions: for cell survival/death in CGNs, % mean ± SE of controls (MTT): 24 h treatment; for neurotoxicity profile in CGNs (in words): 5-50 μM, 24 h
[2] = PAMPA-BBB permeation assay; conditions: for Papp at 100 µM: PAMPA, pH 7.4; for BBB penetration estimation, CNS (+/−): PAMPA-BBB prediction

SMILES: CC/C=C\C/C=C\C/C=C\CCCCCCCC(=O)NCCNC(=O)C(CCC)CCC [compound 1]
- microglia production of M1 proinflammatory marker iNOS (iNOS): significantly decrease
- expression of CNPase, marker of differentiation (CNPase): significant increase
- cell survival/death in CGNs, % mean ± SE of controls (MTT) ([1]; 5 μM): 98 ± 18%
- cell survival/death in CGNs, % mean ± SE of controls (MTT) ([1]; 10 μM): 107 ± 3%
- cell survival/death in CGNs, % mean ± SE of controls (MTT) ([1]; 25 μM): 89 ± 14%
- cell survival/death in CGNs, % mean ± SE of controls (MTT) ([1]; 50 μM): 99 ± 15%
- neurotoxicity profile in CGNs (in words) [1]: low neurotoxicity profile
- Papp at 100 µM [2]: 28 ± 5.3 ×10⁻⁶ cm/s
- BBB penetration estimation, CNS (+/−) [2]: high BBB permeability; also recorded: CNS +

SMILES: CC/C=C\C/C=C\C/C=C\CCCCCCCC(=O)NCCOC(=O)C(CCC)CCC [compound 2]
- microglia production of M1 proinflammatory marker iNOS (iNOS): significantly decrease
- cell survival/death in CGNs, % mean ± SE of controls (MTT) ([1]; 5 μM): 97 ± 16%
- cell survival/death in CGNs, % mean ± SE of controls (MTT) ([1]; 10 μM): 110 ± 3%
- cell survival/death in CGNs, % mean ± SE of controls (MTT) ([1]; 25 μM): 96 ± 15%
- cell survival/death in CGNs, % mean ± SE of controls (MTT) ([1]; 50 μM): 85 ± 14%
- neurotoxicity profile in CGNs (in words) [1]: low neurotoxicity profile
- Papp at 100 µM [2]: 14.6 ± 1.61 ×10⁻⁶ cm/s
- BBB penetration estimation, CNS (+/−) [2]: BBB-permeable; also recorded: CNS +

Source: PMC7734798 (ACS Medicinal Chemistry Letters, 2020)
